Source: PubChem BioAssay (NCI)
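How tested: cells in 96-well plates exposed to compound for 48 hours at five concentrations. GI50: concentration for 50% inhibition of growth. At the TGI there is no net growth.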

Experiments:
Assay in all cases: NCI tumour cell line growth inhibition, 48 h
[1] = system: 786-0 renal
[2] = system: A549 NSCLC
[3] = system: ACHN renal
[4] = system: BT-549 breast
[5] = system: CAKI-1 renal
[6] = system: CCRF-CEM leukemia
[7] = system: COLO 205 colon
[8] = system: DU-145 prostate
[9] = system: EKVX NSCLC
[10] = system: HCC-2998 colon
[11] = system: HCT-116 colon
[12] = system: HCT-15 colon
[13] = system: HL-60(TB) leukemia
[14] = system: HOP-62 NSCLC
[15] = system: HOP-92 NSCLC
[16] = system: HS 578T breast
[17] = system: HT29 colon
[18] = system: IGROV1 ovarian
[19] = system: K-562 leukemia
[20] = system: KM12 colon
[21] = system: LOX IMVI melanoma
[22] = system: M14 melanoma
[23] = system: MALME-3M melanoma
[24] = system: MCF7 breast
[25] = system: MDA-MB-231 breast
[26] = system: MDA-MB-435
[27] = system: MOLT-4 leukemia
[28] = system: NCI-H226 lung
[29] = system: NCI-H23 lung
[30] = system: NCI-H460 lung
[31] = system: NCI-H522 lung
[32] = system: NCI/ADR-RES ovarian
[33] = system: OVCAR-4 ovarian
[34] = system: OVCAR-5 ovarian
[35] = system: OVCAR-8 ovarian
[36] = system: PC-3 prostate
[37] = system: RPMI-8226 leukemia
[38] = system: RXF 393 renal
[39] = system: SF-268 CNS
[40] = system: SF-295 CNS
[41] = system: SF-539 CNS
[42] = system: SK-MEL-2 melanoma
[43] = system: SK-MEL-28 melanoma
[44] = system: SK-MEL-5 melanoma
[45] = system: SK-OV-3 ovarian
[46] = system: SN12C renal
[47] = system: SNB-19 CNS
[48] = system: SNB-75 CNS
[49] = system: SR leukemia
[50] = system: SW-620 colon
[51] = system: T-47D breast
[52] = system: TK-10 renal
[53] = system: U251 CNS
[54] = system: UACC-257 melanoma
[55] = system: UACC-62 melanoma
[56] = system: UO-31 renal
[57] = system: A498 renal
[58] = system: OVCAR-3 ovarian

COc1ccc(C2CC(c3ccc(OC)c(OC)c3)=NN2C(=O)c2cc(OC)c(OC)c(OC)c2)cc1 (stereo not given)
GI50 [1]: 2710 nM | TGI [1]: > 100 µM | GI50 [2]: 2.88 µM | TGI [2]: > 100 µM | GI50 [3]: 2410 nM | TGI [3]: > 100 µM | GI50 [4]: 3960 nM | TGI [4]: > 46.7 µM | GI50 [5]: 473 nM | TGI [5]: > 24.9 µM | GI50 [6]: 4.29 µM | TGI [6]: > 100 µM | GI50 [7]: 2810 nM | TGI [7]: > 28 µM | GI50 [8]: 3.79 µM | TGI [8]: > 100 µM | GI50 [9]: 5.25 µM | TGI [9]: > 100 µM | GI50 [10]: 1850 nM | TGI [10]: 4.77 µM | GI50 [11]: 2230 nM | TGI [11]: > 100000 nM | GI50 [12]: 1760 nM | TGI [12]: > 100 µM | GI50 [13]: 2400 nM | TGI [13]: > 32 µM | GI50 [14]: 1780 nM | TGI [14]: > 100 µM | GI50 [15]: 168 nM | TGI [15]: 0.841 µM | GI50 [16]: 2070 nM | TGI [16]: > 100 µM | GI50 [17]: 3070 nM | TGI [17]: > 100 µM | GI50 [18]: 3.32 µM | TGI [18]: > 100 µM | GI50 [19]: 1200 nM | TGI [19]: > 100 µM | GI50 [20]: 2310 nM | TGI [20]: > 63.1 µM | GI50 [21]: 2470 nM | TGI [21]: > 100 µM | GI50 [22]: 1950 nM | TGI [22]: > 100 µM | GI50 [23]: > 91300 nM | TGI [23]: > 100 µM | GI50 [24]: 647 nM | TGI [24]: > 100 µM | GI50 [25]: 3090 nM | TGI [25]: > 100 µM | GI50 [26]: 409 nM | TGI [26]: 2020 nM | GI50 [27]: 7.36 µM | TGI [27]: > 100 µM | GI50 [28]: 3.06 µM | TGI [28]: > 100 µM | GI50 [29]: 3.46 µM | TGI [29]: > 100 µM | GI50 [30]: 3540 nM | TGI [30]: > 100 µM | GI50 [31]: 560 nM | GI50 [32]: 950 nM | TGI [32]: 6.02 µM | GI50 [33]: > 23800 nM | TGI [33]: > 100 µM | GI50 [34]: 9.26 µM | TGI [34]: > 100 µM | GI50 [35]: 3.96 µM | TGI [35]: > 100 µM | GI50 [36]: 3570 nM | TGI [36]: > 100 µM | GI50 [37]: 4.27 µM | TGI [37]: > 100 µM | GI50 [38]: 344 nM | TGI [38]: 3.05 µM | GI50 [39]: 5.06 µM | TGI [39]: > 100 µM | GI50 [40]: 426 nM | GI50 [41]: 1360 nM | TGI [41]: > 21.7 µM | GI50 [42]: 3870 nM | TGI [42]: > 100 µM | GI50 [43]: 68.5 µM | TGI [43]: > 100 µM | GI50 [44]: 558 nM | TGI [44]: 4.83 µM | GI50 [45]: 1760 nM | TGI [45]: > 100 µM | GI50 [46]: 5.71 µM | TGI [46]: > 100 µM | GI50 [47]: 4.67 µM | TGI [47]: > 100 µM | GI50 [48]: 2080 nM | TGI [48]: > 100 µM | GI50 [49]: 2070 nM | TGI [49]: > 100 µM | GI50 [50]: 3700 nM | TGI [50]: > 100 µM | GI50 [51]: 2300 nM | TGI [51]: > 100 µM | GI50 [52]: 5.26 µM | TGI [52]: > 100 µM | GI50 [53]: 2530 nM | TGI [53]: > 100 µM | GI50 [54]: > 31500 nM | TGI [54]: > 100 µM | GI50 [55]: 1390 nM | TGI [55]: > 100 µM | GI50 [56]: 864 nM | TGI [56]: > 100 µM

CCCCCCn1c(=N)n(CC(O)COc2cccc(C)c2)c2ccccc21 (stereo not given)
GI50 [1]: 1720 nM | TGI [1]: 3.24 µM | GI50 [57]: 1800 nM | TGI [57]: 7.35 µM | GI50 [2]: 3.47 µM | TGI [2]: 13.3 µM | GI50 [3]: 2020 nM | TGI [3]: 4.25 µM | GI50 [4]: 1800 nM | TGI [4]: 3.51 µM | GI50 [5]: 2890 nM | TGI [5]: 10.6 µM | GI50 [6]: 2.36 µM | TGI [6]: 7.14 µM | GI50 [7]: 1900 nM | TGI [7]: 3.43 µM | GI50 [8]: 3.67 µM | TGI [8]: 12.1 µM | GI50 [10]: 2040 nM | TGI [10]: 3.65 µM | GI50 [11]: 1360 nM | TGI [11]: 2890 nM | GI50 [12]: 2120 nM | TGI [12]: 5.34 µM | GI50 [13]: 1880 nM | TGI [13]: 3.79 µM | GI50 [14]: 2140 nM | TGI [14]: 3.88 µM | GI50 [15]: 2200 nM | TGI [15]: 8.02 µM | GI50 [16]: 2630 nM | TGI [16]: 8.27 µM | GI50 [17]: 1730 nM | TGI [17]: 3.59 µM | GI50 [18]: 2.78 µM | TGI [18]: 10.2 µM | GI50 [19]: 2070 nM | TGI [19]: 5.28 µM | GI50 [20]: 2040 nM | TGI [20]: 4.17 µM | GI50 [21]: 1820 nM | TGI [21]: 3.44 µM | GI50 [22]: 1830 nM | TGI [22]: 3.42 µM | GI50 [23]: 1920 nM | TGI [23]: 3.66 µM | GI50 [24]: 1760 nM | TGI [24]: 3.55 µM | GI50 [25]: 2200 nM | TGI [25]: 6.44 µM | GI50 [26]: 1830 nM | TGI [26]: 3560 nM | GI50 [27]: 2.39 µM | TGI [27]: 6.16 µM | GI50 [28]: 3.14 µM | TGI [28]: 12.5 µM | GI50 [29]: 2.89 µM | TGI [29]: 11.5 µM | GI50 [30]: 1960 nM | TGI [30]: 3.88 µM | GI50 [31]: 1780 nM | TGI [31]: 3.82 µM | GI50 [32]: 2820 nM | TGI [32]: 8.89 µM | GI50 [58]: 2130 nM | TGI [58]: 4.98 µM | GI50 [33]: 2150 nM | TGI [33]: 6.27 µM | GI50 [34]: 4.01 µM | TGI [34]: 15.1 µM | GI50 [35]: 2.21 µM | TGI [35]: 4.74 µM | GI50 [36]: 2160 nM | TGI [36]: 5.23 µM | GI50 [37]: 1.98 µM | TGI [37]: 4.56 µM | GI50 [39]: 3.9 µM | TGI [39]: 13.9 µM | GI50 [40]: 1780 nM | TGI [40]: 3.78 µM | GI50 [41]: 2200 nM | TGI [41]: 4.43 µM | GI50 [42]: 1910 nM | TGI [42]: 4.26 µM | GI50 [43]: 1.87 µM | TGI [43]: 3.51 µM | GI50 [44]: 1770 nM | TGI [44]: 3.2 µM | GI50 [45]: 3380 nM | TGI [45]: 9.32 µM | GI50 [46]: 3.21 µM | TGI [46]: 13.8 µM | GI50 [47]: 4.94 µM | TGI [47]: 20 µM | GI50 [48]: 2540 nM | TGI [48]: 12.2 µM | GI50 [49]: 1760 nM | TGI [49]: 5.84 µM | GI50 [50]: 1820 nM | TGI [50]: 4.04 µM | GI50 [51]: 2190 nM | TGI [51]: 4.86 µM | GI50 [52]: 3.71 µM | TGI [52]: 12.8 µM | GI50 [54]: 2000 nM | TGI [54]: 4.35 µM | GI50 [55]: 1920 nM | TGI [55]: 4.97 µM | GI50 [56]: 3880 nM | TGI [56]: 15.4 µM
